Measured values reported in publication PMC11374953, “Heteroaryl derivatives of suvorexant as OX1R selective PET ligand candidates: Cu-mediated ^18F-fluorination of boroxines, in vitro and initial in vivo evaluation” (EJNMMI Research, 2024).

Legend:
human OX1R = molecular target: T1, human OX1R (Homo sapiens, UniProt O43613); parameters: method as in PMID 32669442; conditions: data from previous work, cited from earlier work
T1 construct: host or cells: HEK293T
T1 sequence (O43613 1-425): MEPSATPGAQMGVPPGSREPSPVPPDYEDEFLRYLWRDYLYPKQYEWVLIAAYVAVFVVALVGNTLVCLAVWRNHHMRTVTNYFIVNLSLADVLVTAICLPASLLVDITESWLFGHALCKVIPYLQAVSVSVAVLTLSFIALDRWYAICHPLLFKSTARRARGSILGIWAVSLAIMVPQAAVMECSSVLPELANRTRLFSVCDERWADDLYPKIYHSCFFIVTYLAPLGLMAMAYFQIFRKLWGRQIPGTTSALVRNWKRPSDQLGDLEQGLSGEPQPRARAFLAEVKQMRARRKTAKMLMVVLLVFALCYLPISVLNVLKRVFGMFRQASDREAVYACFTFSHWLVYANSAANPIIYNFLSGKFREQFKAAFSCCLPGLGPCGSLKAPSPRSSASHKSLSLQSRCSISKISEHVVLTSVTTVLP

human OX2R = molecular target: T2, human OX2R (Homo sapiens, UniProt O43614); parameters: method as in PMID 32669442; conditions: HEK293T homogenates; data from previous work; read-out: Ki values (nM ± SEM) hOX2R; cited from earlier work
T2 construct: host or cells: HEK293T
T2 sequence (O43614 1-444): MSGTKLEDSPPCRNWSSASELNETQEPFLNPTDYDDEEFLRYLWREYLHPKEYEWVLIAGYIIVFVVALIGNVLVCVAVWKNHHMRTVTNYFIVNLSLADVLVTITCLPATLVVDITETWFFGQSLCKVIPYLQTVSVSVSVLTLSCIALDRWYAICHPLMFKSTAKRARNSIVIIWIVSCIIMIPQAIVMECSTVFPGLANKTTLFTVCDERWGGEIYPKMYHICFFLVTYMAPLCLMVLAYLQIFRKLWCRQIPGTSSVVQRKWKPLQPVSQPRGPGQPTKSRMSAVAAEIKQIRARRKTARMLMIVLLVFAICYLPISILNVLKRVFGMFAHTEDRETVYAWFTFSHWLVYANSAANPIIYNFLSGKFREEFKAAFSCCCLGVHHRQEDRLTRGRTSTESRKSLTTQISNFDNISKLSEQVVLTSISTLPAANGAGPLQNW

[1] = Partition coefficient logD7.4 (n-octanol/PBS); type: physicochemical; conditions: n-octanol/PBS pH 7.4, mean ± SD
Procedure: Phosphate-buffered saline (PBS, 480 µL, pH 7.4) and n-octanol (500 µL) were placed in an Eppendorf tube. The radioligand (30–50 kBq, [^18F]1c or [^18F]1f) in PBS (20 µL) was added to the tube, vortexed for 1 min and centrifuged (20,000g, 1 min). Three samples (100 µL) from each layer were collected and measured by a γ-counter (Wallac Wizard 1470, PerkinElmer, USA). After the average cpm values from the triplicate measurements of each layer were calculated, the logD7.4 was determined as the logarithm of the ratio of n-octanol (mean cpm) to PBS (mean cpm). The mean logD7.4 value ± standard deviation was determined by at least three independent experiments each performed in triplicates.

[2] = Plasma protein binding (MicroSpin G-50 columns); type: in vitro ADME; conditions: human plasma, 37 °C, read-out: plasma protein binding (PPB) (converted)
Procedure: The radiotracer (100–200 kBq, [^18F]1c or [^18F]1f) in PBS (2 µL) was incubated with human plasma (100 µL) at 37 °C for 10 min. After preconditioning of the microcolumns according to the instructions of the manufacturer (illustra MicroSpin G-50 columns from GE Healthcare), a sample (40 µL) of was applied to the resin. The microspin tubes were centrifuged (2000g, 2 min) and both, eluate and resin were measured by a γ-counter (Wallac Wizard 1470, PerkinElmer, USA). The PPB was calculated as percentage of bound ligand (cpm of resin) from the total amount of radioactivity (sum of cpm of resin and eluate). Samples from incubation of the radiotracer in saline instead of plasma served as negative control. The mean PPB value was determined from at least two independent experiments each performed in triplicate.

[3] = Radioligand stability in human plasma and human serum; type: in vitro ADME; conditions: 37 °C, up to 120 min, radio-HPLC
Procedure: (§1) The radioligand (1–2 MBq, [^18F]1c or [^18F]1f) in PBS (20 µL) was incubated with human serum, human plasma or rat plasma (400 µL) at 37 °C. Samples (50 µL) were taken at 5, 10, 15, 30, 60 and 120 min, mixed with aqueous TFA (10%, 50 µL) and centrifuged (20,000g, 2 min). The supernatant (20 µL) was analyzed by radio-HPLC.

[4] = Radioligand stability in rat plasma; type: in vitro ADME; conditions: 37 °C, up to 120 min, radio-HPLC
Procedure: as §1

[5] = Dynamic small animal PET imaging of the rat brain; type: in vivo
Procedure: Small animal PET experiments in rats were performed to allow for an initial comparison in single animals that were injected with [^18F]1c or [^18F[1f alone, after preinjection of suvorexant (1 mg/kg), and after pretreatment with cyclosporine A (25 mg/kg) (Fig. 3). […] Therefore, to elucidate the P-gp-mediated transport of the compounds, specific experiments were performed.
Fig. 3 Time-activity curves and horizontal PET slices of the rat brain after injection of [^18F]1c (A, C) and [^18F]1f (B, D). Single animals were injected with the tracer alone (“control”, blue) compared to animals preinjected with suvorexant (1 mg/kg, 15 min prior to tracer injection, each n = 1; “blocking”, red) or cyclosporine A (25 mg/kg, 30 min prior to tracer injection, each n = 1; green)
Ten- to 13-week-old female CD Sprague–Dawley rats (250–300 g, Charles River) were housed with free access to standard rat chow (Purina) and water at all times. Dynamic small animal PET scans were performed on an Inveon™ microPET scanner (Siemens Healthineers AG, Erlangen, Germany). All rats were continuously anesthetized using isoflurane (2–3% in oxygen, 0.8 L/min) and placed on a heating pad (37 °C) during the PET scan. Rats were injected intravenously in the tail vein with the radioligand in saline (5–15 MBq in 200–300 µL, [^18F]1c or [^18F]1f). Pretreatment with suvorexant (1 mg/kg, 15 min prior to tracer injection) or cyclosporine A (25 mg/kg, […] to tracer injection) was done intravenously. Dynamic PET scans were acquired from 0 to 60 min p.i. and consisted of 23 frames with increasing duration (12 × 10 s, 3 × 1 min, 5 × 5 min and 3 × 10 min). Subsequently, an attenuation scan with a rotating Co-57 point source was performed. The obtained dynamic emission images were subjected to an attenuation and decay correction. After the iterative maximum a posteriori (MAP) estimation for the image reconstruction, regions of interest (ROIs) were drawn for the whole brain. Computational processing of the PET scans was done with the software PMOD (PMOD Technologies LLC). The data obtained were finally converted into values expressed as percent of injected dose per gram (%ID/g).

[6] = cited from earlier work

CC[C@H](C)[C@H]1CN(c2nc3cc(Cl)ccc3o2)CCCN1C(=O)c1cc(C)ccc1-n1nccn1 [JH112]
Ki (human OX1R; HEK293T membranes, read-out: Ki values (nM ± SEM) hOX1R): 0.72 ± 0.08 nM | OX1R selectivity Ki(hOX2R)/Ki(hOX1R) (human OX1R; Ki for OX2R divided by Ki for OX1R): 75 | Ki (human OX2R): 54 ± 7 nM

CC[C@H](C)[C@H]1CN(c2nc3ccc([18F])cc3s2)CCCN1C(=O)c1cc(C)ccc1-n1nccn1 [[^18F]1f, {(S)-2-[(S)-sec-butyl]-4-(6-[^18F]fluorobenzo[d]thiazol-2-yl)-1,4-diazepan-1-yl}[5-methyl-2-(2H-1,2,3-triazol-2-yl)phenyl]methanone]
logD [1]: 2.37 | fraction unbound at 10 min [2]: 0.23 | stability in human plasma [3]: stable over 120 min | stability in human serum [3]: stable over 120 min | stability in rat plasma [4]: stable over 120 min | brain uptake after pretreatment with cyclosporine A ([5]; cyclosporine A 25 mg/kg i.v. prior to tracer, n = 1): 0.18 %ID/g | brain uptake after preinjection of suvorexant ([5]; suvorexant 1 mg/kg i.v. 15 min prior to tracer, n = 1): not affected | time of maximum brain uptake p.i. ([5]; tracer alone i.v.): 24 s | maximum brain uptake ([5]; tracer alone i.v., whole brain, n = 1): 0.15 %ID/g

Cc1ccc(-n2nccn2)c(C(=O)N2CCN(c3nc4cc(Cl)ccc4o3)CC[C@H]2C)c1 [suvorexant]
protein-bound fraction in the blood [6]: > 99%
